# Measured values from ChEMBL document CHEMBL4308869, “Towards lead compounds as anti-cancer agents via new phaeosphaeride A derivatives” (Bioorg Med Chem Lett, 2019).
# Assays:
# NCI-H929 [1] = experiment: Cytotoxicity against human NCI-H929 cells after 72 hrs by MTT assay; type: functional, cell-based; conditions: NCI-H929, 72 h
# Jurkat = experiment: Cytotoxicity against human Jurkat cells after 72 hrs by MTT assay; type: functional, cell-based
# K562 = experiment: Cytotoxicity against human K562 cells after 72 hrs by MTT assay; type: functional, cell-based; conditions: K562, 72 h
# PC-3 [2] = experiment: Cytotoxicity against human PC3 cells after 72 hrs by MTT assay; type: functional, cell-based; conditions: PC-3, 72 h
# HEF = experiment: Cytotoxicity against HEF after 72 hrs by MTT assay; type: cell-based; conditions: Homo sapiens
# MCF7 = experiment: Cytotoxicity against human MCF7 cells after 72 hrs by MTT assay; type: functional, cell-based; conditions: MCF7, 72 h
# A549 [3] = experiment: Cytotoxicity against human A549 cells after 72 hrs by MTT assay; type: functional, cell-based; conditions: A549, 72 h
# RPMI-8226 = experiment: Cytotoxicity against human RPMI8226 cells after 72 hrs by MTT assay; type: functional, cell-based; conditions: RPMI-8226, 72 h
# HCT-116 [4] = experiment: Cytotoxicity against human HCT116 cells after 72 hrs by MTT assay; type: functional, cell-based; conditions: HCT-116, 72 h
# THP-1 = experiment: Cytotoxicity against human THP1 cells after 72 hrs by MTT assay; type: functional, cell-based; conditions: THP-1, 72 h
# [5] = Therapeutic index, ratio of IC50 for HEF to IC50 for human HCT116 cells; type: toxicity; conditions: HEF cells versus HCT116 cells, read-out: Ratio IC50
# HCT-116 [6] = experiment: Potency index, ratio of PPA IC50 to test compound IC50 for human HCT116 cells; type: functional
# PC-3 [7] = experiment: Potency index, ratio of PPA IC50 to test compound IC50 for human PC3 cells; type: functional
# [8] = Therapeutic index, ratio of IC50 for HEF to IC50 for human NCI-H929 cells; type: toxicity; conditions: HEF cells versus NCI-H929 cells, read-out: Ratio IC50
# NCI-H929 [9] = experiment: Potency index, ratio of etoposide IC50 to test compound IC50 for human NCI-H929 cells; type: functional
# NCI-H929 [10] = experiment: Potency index, ratio of PPA IC50 to test compound IC50 for human NCI-H929 cells; type: functional
# A549 [11] = experiment: Potency index, ratio of etoposide IC50 to test compound IC50 for human A549 cells; type: functional
# A549 [12] = experiment: Potency index, ratio of PPA IC50 to test compound IC50 for human A549 cells; type: functional
Structure (SMILES),IC50 (NCI-H929 [1]) [µM],IC50 (Jurkat) [µM],IC50 (K562) [µM],IC50 (PC-3 [2]) [µM],IC50 (HEF) [µM],IC50 (MCF7) [µM],IC50 (A549 [3]) [µM],IC50 (RPMI-8226) [µM],IC50 (HCT-116 [4]) [µM],IC50 (THP-1) [µM],selectivity ratio [5],Ratio IC50 (HCT-116 [6]),Ratio IC50 (PC-3 [7]),selectivity ratio [8],Ratio IC50 (NCI-H929 [9]),Ratio IC50 (NCI-H929 [10]),Ratio IC50 (A549 [11]),Ratio IC50 (A549 [12])
C=C1C2=C(C(=O)N1OC)[C@H](O)[C@@](C)(O)[C@H](CCCCC)O2,6.5,10,20,32,19,20,41,9.3,44,19,,,,,,,,
C=C1C2=C(C(=O)N1OC)[C@H](OC(=O)CCl)[C@@](C)(O)[C@H](CCCCC)O2,3.3,9.6,7,2.4,9.1,17,20,9.7,2.4,11,3.8,20,,,,,,
C=C1C2=C(C(=O)N1OC)[C@@H](F)[C@@](C)(O)[C@H](CCCCC)O2,3.9,15,18,12,37,37,42,16,31,19,,,3,,,,,
C=C1C2=C(C(=O)N1OC)[C@H](OC(=O)CSc1nc3ccccc3o1)[C@@](C)(O)[C@H](CCCCC)O2,3,2.6,4.5,5.8,9.3,3.9,20,5.1,4.9,2.3,,,,,,,,
C=C1C2=C(C(=O)N1OC)[C@H](OC(=O)CSc1nc3ccccc3[nH]1)[C@@](C)(O)[C@H](CCCCC)O2,2,8.9,9.3,6.4,11,16,19,4.3,8.2,5.3,,,,,,,,
C=C1C2=C(C(=O)N1OC)[C@H](OC(=O)CCCCCl)[C@@](C)(O)[C@H](CCCCC)O2,2.5,4.2,8.5,9.2,11,5.4,12,4.3,11,4.6,,,,,,,,
C=C1C2=C(C(=O)N1OC)[C@H](OC(=O)CSc1nc3ccccc3s1)[C@@](C)(O)[C@H](CCCCC)O2,0.59,2.3,4.3,5,11,6.3,5.9,2,4.7,1.6,,,,18.6,1.5,11,16,7
COc1cc([C@@H]2c3cc4c(cc3[C@@H](O[C@@H]3O[C@@H]5CO[C@@H](C)O[C@H]5[C@H](O)[C@H]3O)[C@H]3COC(=O)[C@H]23)OCO4)cc(OC)c1O [ETOPOSIDE],0.9,1.4,9.4,2.7,> 100,9.6,100,4.8,22,1,,,,,,,,
